Data from patent publication US6286513A, “Methods for treating superficial bladder carcinoma” (priority 1998, dated 2001).
“Also recorded” adds a separate entry of the source.

How the values were obtained:
[1] = system: Ta, T1 or Tis bladder tumors; test: Clinical trial of adjuvant intravesical MMC after transurethral resection: recurrence in Ta, T1 or Tis bladder tumor patients (Example 1, Table 2, FIG. 1); assay type: in vivo; details: for median time to recurrence: all patients (Ta, T1, Tis); for percentage of patients projected to be tumor recurrence-free at the end of 5 years: all patients, Kaplan-Meier projection
Method: One hundred and eight patients with histologically proven primary or recurrent transitional cell carcinoma of grade I to grade III and of stage Ta, T1 or Tis who had their tumors completely resected received the high efficacy therapy within 4 weeks after surgery.
The high efficacy therapy was administered once weekly for a total of six treatments. The MMC dosing solution was made by adding 40 mg of MMC to a vial containing 20 ml of sterile water.
To reduce urine production in the patients during treatment with the MMC dosing solution, the patients were instructed to refrain from fluids for 8 hours prior to and during treatment with the MMC dosing solution. To maintain the pH levels of the urine produced during treatment with the MMC dosing solution, the patients were given 1.3 grams of sodium bicarbonate the night prior to treatment, upon rising on the morning of treatment and 30 minutes prior to treatment. Then a Foley catheter was placed in the bladder of the patients and the bladder was drained by gravity. This was accomplished by holding the catheter end below the level of the bladder. The post void residual urine volume was determined using a bladder ultrasound machine. Drainage of the bladder was repeated until the residual urine volume was less than 10 ml. Drainage was aided by having the patient sit up or stand up, or reach forward while standing. Thereafter, 40 mg of MMC in 20 ml sterile water was instilled intravesically by gravity into the bladder of the patient and retained there for 2 hours. After the 2 hour therapy, bladder contents were drained from the patients and the volume and pH of the contents measured.
For purposes of comparison, 97 matching control patients from whom primary Ta, T1 or Tis bladder tumors had been completely resected were subjected to the customary experimental MMC intravesical therapy weekly for six weeks. These patients were not instructed to refrain from fluids for 8 hours prior to or during the customary experimental therapy. Prior to instillation of the 1 mg/ml MMC dosing solution, the patients were placed in the supine or dorsal lithotomy position and a Foley catheter inserted transurethrally into the bladder of the patients. The bladders were drained by gravity and the post void urine residual volume was measured. No attempts were made to further reduce the residual urine volume. Thereafter, 20 mg of MMC in 20 ml sterile water was instilled intravesically by gravity into the bladders of the patients and retained for 2 hours. After the 2 hour therapy, bladder contents were drained from the patients and the volume and pH of the contents measured.
Cytoscopy was performed on each surviving patient quarterly at three months for 2 years and then at 3 months or six months for the remaining 3 years to look for evidence of visible tumors. Urine cytology was performed on each surviving patient quarterly at three months for 2 years and then at 3 months or six months for the remaining 3 years to look for cells with aneuploid DNA contents. […] If necessary, i.e., if tumor recurrence was suspected, the follow-up included biopsy of the suspicious area and transurethral resection of the bladder tumor. Patients with proven recurrence were treated according to standards in the clinical community.
At each time period the number of patients who had developed histologically proven recurrent or progressive disease on biopsy or cytology was determined. The percentage of patients who remained tumor free at each time period after receiving the high efficacy therapy or the customary experimental therapy is shown in FIG. 1.
The Kaplan-Meier Curve is a conventional tool used to project treatment outcome such as the % of patients who remain alive or free of disease at a certain time interval. (Martin Bland, Introduction to Medical Statistics (1994) Oxford Press). The Kaplan Meier Curve was used to compare the customary experimental therapy to the high efficacy therapy. […]

[2] = system: Tis tumors; test: Recurrence in patients with Tis tumors (Example 4); assay type: in vivo
Method: Ten patients from whom one or more foci of Tis had been removed were treated weekly for six weeks with the high efficacy therapy as described above in example 1 and 12 patients from whom one or more foci of Tis had been removed were treated weekly for six with the standard MMC intravesical therapy as described in example 1. […] The projected 5-year recurrence free rate is 43% for the high efficacy treatment and 19% for the standard treatment.

[3] = Toxicity comparison of high efficacy and customary intravesical MMC therapy (Table 1); assay type: in vivo, patients
[4] = Blood levels of MMC during high efficacy therapy; assay type: in vivo, patients
[5] = Overall bladder wall exposure to MMC: urinary AUC, C^n×T, urine production and pH (Table 3); assay type: in vivo, patients; details: for Urinary AUC / Urinary C^n × T: mean ± standard deviation; for Urinary C^n × T: n = 1.24
Description: A commonly used measure of drug exposure for anticancer agent is the product of exposure concentration and duration, or AUC (area under the curve). […] The drug exposure in the urinary bladder can be determined from the drug concentration in the urine and can serve as a measure of exposure to the tumor tissue.

[6] = system: superficial bladder carcinomas; details: customary experimental MMC, weekly, 1 mg/ml in 20-40 ml, six to eight weeks; cited from earlier work
[7] = previous studies, cited from earlier work
[8] = customary experimental MMC intravesical therapy
[9] = high efficacy vs customary experimental therapy

Q: What does the source list for COC12C(COC(N)=O)C3=C(C(=O)C(C)=C(N)C3=O)N1CC1NC12 (stereo not drawn) [MMC]?
A: median time to recurrence [1, 8]: 292 days; percentage of patients projected to be tumor recurrence-free at the end of 5 years [1, 8]: 20%; percentage of patients projected to remain tumor recurrence free for 5 years, vs customary therapy ([1]; high efficacy therapy, Ta, T1, Tis): more effective in enhancing the percentage or fraction of Ta, T1, Tis bladder tumor patients that are projected to remain tumor recurrence free for a period of 5 years; rate of recurrence and time interval before tumor recurrence, vs customary therapy ([1]; high efficacy therapy, Ta, T1 or Tis): more effective at reducing the rate of recurrence and increasing the time interval before tumor recurrence is observed; also recorded: tumors recurred at a later time in patients receiving the high efficacy treatment; median time to recurrence ([1]; high efficacy therapy): 754 days; percentage of patients projected to be tumor recurrence-free at the end of 5 years ([1]; high efficacy therapy): 41%; (median time to recurrence; words missing in text) ([2]; customary experimental treatment): 106 days; projected 5-year recurrence free rate ([2]; high efficacy treatment): 43%; projected 5-year recurrence free rate ([2]; standard treatment): 19%; Allergy ([3]; Customary (n = 96)): 9 % of patients; Any toxicity ([3]; Customary (n = 96)): 64 % of patients; Cramp ([3]; Customary (n = 96)): 17 % of patients; Cystitis ([3]; Customary (n = 96)): 18 % of patients; Dermal ([3]; Customary (n = 96)): 10 % of patients; Dysuria ([3]; Customary (n = 96)): 19 % of patients; Fatigue ([3]; Customary (n = 96)): 20 % of patients; Fever ([3]; Customary (n = 96)): 5 % of patients; Hematuria ([3]; Customary (n = 96)): 24 % of patients; Leukopenia ([3]; Customary (n = 96)): 0 % of patients; Malaise ([3]; Customary (n = 96)): 19 % of patients; Nausea ([3]; Customary (n = 96)): 9 % of patients; Pain ([3]; Customary (n = 96)): 17 % of patients; Thrombocytopenia ([3]; Customary (n = 96)): 0 % of patients; Urgency ([3]; Customary (n = 96)): 28 % of patients; Urinary frequency ([3]; Customary (n = 96)): 33 % of patients; Vomiting ([3]; Customary (n = 96)): 5 % of patients; Allergy ([3]; High efficacy (n = 104)): 13 % of patients; Any toxicity ([3]; High efficacy (n = 104)): 72 % of patients; Cramp ([3]; High efficacy (n = 104)): 15 % of patients; Cystitis ([3]; High efficacy (n = 104)): 24 % of patients; Dermal ([3]; High efficacy (n = 104)): 15 % of patients; Dysuria ([3]; High efficacy (n = 104)): 35 % of patients; Fatigue ([3]; High efficacy (n = 104)): 19 % of patients; Fever ([3]; High efficacy (n = 104)): 5 % of patients; Hematuria ([3]; High efficacy (n = 104)): 26 % of patients; Leukopenia ([3]; High efficacy (n = 104)): 1 % of patients; Malaise ([3]; High efficacy (n = 104)): 18 % of patients; Nausea ([3]; High efficacy (n = 104)): 12 % of patients; Pain ([3]; High efficacy (n = 104)): 17 % of patients; Thrombocytopenia ([3]; High efficacy (n = 104)): 0 % of patients; Urgency ([3]; High efficacy (n = 104)): 22 % of patients; Urinary frequency ([3]; High efficacy (n = 104)): 26 % of patients; Vomiting ([3]; High efficacy (n = 104)): 4 % of patients; bone marrow toxicity ([3]; high efficacy therapy): did not exhibit any signs of bone marrow toxicity; dysuria, frequency and severity ([3]; high efficacy therapy): higher frequency of dysuria. But this toxicity was mild and did not result in termination of treatment; other toxicities (dysuria, cystitis, hematuria, cramps), severity ([3]; high efficacy therapy, a small number of patients): mild; blood levels of MMC, in most instances [4]: less than 5 ng/ml; levels of MMC in the blood of the patients, upper bound [4]: ≤ 50 ng/mL; Urinary AUC ([5]; customary experimental therapy): 24.2 ± 14.7 mg·min/mL; Urinary C^n × T ([5]; customary experimental therapy): 97.2 ± 77.08 mg^n.min/ml; Urinary AUC ([5]; high efficacy therapy): 57.6 ± 37.2 mg·min/mL; Urinary C^n × T ([5]; high efficacy therapy): 291 ± 283 mg^n.min/ml; average drug exposure measured as AUC, high efficacy relative to customary [5, 9]: 2 times; average drug exposure measured as C^n×T, high efficacy relative to customary [5, 9]: 2.4 times; additional patients without recurrent tumor at 1 year vs transurethral resection alone [6]: 1-13%; systemic dose without significant host toxicity ([7]; MMC given systemically): ≤ 50 mg; blood level of MMC without significant host toxicity [7]: below 400 ng/ml
